Measured values taken from patent US5554542A, “Immunoassay for isothiazolones” (Rohm and Haas Company, priority 1993, dated 1996).

Experiments:
Type in all cases: binding, mouse
[1] = test system: antibodies of 89-147EH9 clones; assay: CIEIA reactivity of 89-147EH9 clones with compounds 651 and 573
Procedure: (§1) The supernatants from wells with growing colonies of hybridomas were screened using CIEIA. Ninety-six well polystyrene EIA ([…]) plates were coated with 100 μl of 651 conjugated to BSA (651-BSA) for at least two hours at room temperature or 16 hours at 4° C. Unbound material was washed from the wells with five washes of PBS-T. The wells then received 50 μl of buffer alone (PBS-T) or inhibitors, either 651 or 573, each diluted to 2 ppm in buffer. The wells then received 50 μl of supernatant from each cell culture, so that each supernatant was reacted with either buffer, 651 or 573 (inhibitors). […] The wells were incubated for 30-60 minutes at room temperature. They were then washed five times with PBS-T to remove unbound material and each well then received 100 μl of a 1 μg/ml solution of biotinylated horse anti-mouse IgG (Vector Laboratories, Burlingame, Calif.), and the assay continued as described for the ELISA, supra.
In order to assure that the antibodies reactive with compound 651 were produced by cells of the identical genetic makeup, it was necessary to derive clones of cell culture 89--147EH9. Cloning was accomplished by first determining the total number of viable cells in a population of 89-147EH9 cells. The cell population was then diluted to a density of 4-5 cells per ml of cell culture medium. Two hundred μl of this cell suspension was then planted in each well of four 96 well cell culture dishes, designated I-IV. Fourteen days later, each well was checked by microscopic evaluation for growing colonies of cells. Those with only a single loci of cells were designated monoclonal.
Subsequently, each colony was tested for reactivity in the ELISA described previously. Of the colonies, several were selected for expansion and retesting by CIEIA for reactivity with both 651 and 573.

[2] = test system: antibodies in hybridoma culture supernatants (CF10, EH9, EC2, EC2 IB8); assay: CIEIA of hybridoma culture supernatants; conditions: culture EH9, supernatant dilution 1:4, tested versus 0.4 ppm of inhibitor, coating 651-BSA; no inhibitor 0.515
[3] = test system: antibodies produced by cell culture 89-147EH9; assay: CIEIA for detection of biocides, four inhibitors at several concentrations; conditions: for 10 Minute Absorbances × 1000: no inhibitor 515
Procedure: as §1, with “The wells then received 50 μl of buffer alone (PBS-T) or inhibitors, either 651 or 573, each diluted to 2 ppm in buffer.” left out

[4] = test system: antibodies in hybridoma culture supernatants (CF10, EH9, EC2, EC2 IB8); assay: CIEIA of hybridoma culture supernatants; conditions: for Inhibition of antibody binding to coating antigen: cell culture 89-147EH9, coating antigen 651-BSA; for Inhibitors (Absorbance): coating 651-BSA
Procedure: as §1
If the antibodies in a supernatant were reactive with one or both of the inhibitors in solution in the wells, the antibody molecules, or a percentage of the antibody molecules, would bind to the inhibitors, and would therefore form an antibody-inhibitor complex which would stay in solution and be removed from the plate during the washing step. In such a case, the binding of the antibody to the inhibitor would reduce the number of antibody molecules available to bind to the coating antigen, 651-BSA. Because fewer antibody molecules are attached to the 651-BSA, there is a reduction in the number of biotinylated horse anti-mouse IgG molecules bound, resulting in fewer molecules of avidin-peroxidase complex being bound, resulting in reduced hydrolysis of the substrate, leading ultimately to lower absorbances.
It is possible to manipulate the CIEIA to achieve greater inhibition by varying the concentrations of coating antigen, antibodies and detection molecules (such as the horse anti-mouse IgG and the avidin-peroxidase complex). Such "optimization" of the CIEIA is used to obtain higher levels of sensitivity and allow the use of lower concentrations (i.e. higher dilutions) of the monoclonal antibodies.

[5] = clone IA5, inhibitor 1 PPM, PBS 528
[6] = clone ID5, inhibitor 1 PPM, PBS 584
[7] = clone ID8, inhibitor 1 PPM, PBS 746
[8] = clone IID1, inhibitor 1 PPM, PBS 060
[9] = clone IIIH6, inhibitor 1 PPM, PBS 647
[10] = clone IVE1, inhibitor 1 PPM, PBS 818
[11] = clone IVE4, inhibitor 1 PPM, PBS 595
[12] = clone IVF12, inhibitor 1 PPM, PBS 090
[13] = clone IVH2, inhibitor 1 PPM, PBS 680
[14] = inhibitor concentration 0.08 ppm
[15] = inhibitor concentration 0.4 ppm
[16] = culture CF10, supernatant dilution 1:2, inhibitor 1 PPM, no inhibitor 0.485
[17] = culture CF10, supernatant dilution 1:2.5, inhibitor 1 PPM, no inhibitor 0.121
[18] = culture EC2, supernatant dilution 1:2, inhibitor 1 PPM, no inhibitor 0.847
[19] = culture EC2, supernatant dilution 1:12, inhibitor 1 PPM, no inhibitor 0.917
[20] = culture EC2 IB8 (a clone of 89147EC2), supernatant dilution 1:6, inhibitor 1 PPM, no inhibitor 0.169
[21] = culture EH9, supernatant dilution 1:2, inhibitor 1 PPM, no inhibitor 0.170
[22] = culture EH9, supernatant dilution 1:2.5, inhibitor 1 PPM, no inhibitor 0.386

Compound	% I (percentage inhibition) ([1]; clone IA5, inhibitor 1 PPM) [%]	Absorbances × 1000 [1, 5]	% I (percentage inhibition) ([1]; clone ID5, inhibitor 1 PPM) [%]	Absorbances × 1000 [1, 6]	% I (percentage inhibition) ([1]; clone ID8, inhibitor 1 PPM) [%]	Absorbances × 1000 [1, 7]	% I (percentage inhibition) ([1]; clone IID1, inhibitor 1 PPM) [%]	Absorbances × 1000 [1, 8]	% I (percentage inhibition) ([1]; clone IIIH6, inhibitor 1 PPM) [%]	Absorbances × 1000 [1, 9]	% I (percentage inhibition) ([1]; clone IVE1, inhibitor 1 PPM) [%]	Absorbances × 1000 [1, 10]	% I (percentage inhibition) ([1]; clone IVE4, inhibitor 1 PPM) [%]	Absorbances × 1000 [1, 11]	% I (percentage inhibition) ([1]; clone IVF12, inhibitor 1 PPM) [%]	Absorbances × 1000 [1, 12]	% I (percentage inhibition) ([1]; clone IVH2, inhibitor 1 PPM) [%]	Absorbances × 1000 [1, 13]	Inhibitors (Absorbance) [2]	10 Minute Absorbances × 1000 [3, 14]	also measured
Cn1sc(Cl)cc1=O [compound 651, 5-chloro-2-methyl-3-isothiazolone]	34.1	348	26.5	429	0.0	807	< 1.0	055	27.2	471	44.7	452	39.3	361	27.8	065	46.2	366	0.186	448	Relative reactivity of the antibodies with the compounds tested ([3]; 89-147EH9 antibodies, 651 versus similar amounts of other biocides): more strongly reactive; 10 Minute Absorbances × 1000 ([3]; inhibitor concentration 0.016 ppm): 491; 10 Minute Absorbances × 1000 [3, 15]: 338; 10 Minute Absorbances × 1000 ([3]; inhibitor concentration 2 ppm): 185; 10 Minute Absorbances × 1000 ([3]; inhibitor concentration 10 ppm): 106; Inhibition of antibody binding to coating antigen [4]: inhibitable; Inhibitors (Absorbance) [4, 16]: 0.419; Inhibitors (Absorbance) [4, 17]: 0.119; Inhibitors (Absorbance) [4, 18]: 0.652; Inhibitors (Absorbance) [4, 19]: 0.910; Inhibitors (Absorbance) [4, 20]: 0.124; Inhibitors (Absorbance) [4, 21]: 0.150; Inhibitors (Absorbance) [4, 22]: 0.122
Cn1sccc1=O [compound 573, 2-methyl-3-isothiazolone]	10.8	471	0.0	671	0.0	1068	< 1.0	057	0.0	705	34.1	539	9.4	539	18.9	073	7.0	632	0.504	590	10 Minute Absorbances × 1000 [3, 15]: 461; 10 Minute Absorbances × 1000 ([3]; inhibitor concentration 2 ppm): 504; 10 Minute Absorbances × 1000 ([3]; inhibitor concentration 10 ppm): 344; 10 Minute Absorbances × 1000 ([3]; inhibitor concentration 50 ppm): 191; Inhibition of antibody binding to coating antigen [4]: inhibitable; Inhibitors (Absorbance) [4, 16]: 0.479; Inhibitors (Absorbance) [4, 17]: 0.099; Inhibitors (Absorbance) [4, 18]: 0.520; Inhibitors (Absorbance) [4, 19]: 0.872; Inhibitors (Absorbance) [4, 20]: 0.121; Inhibitors (Absorbance) [4, 21]: 0.117; Inhibitors (Absorbance) [4, 22]: 0.135
